Measurements: patent US20240300949A1, “NOVEL CRYSTALLINE FORM OF 1-(8-BROMOPYRIDO[2,3-E][1,2,4]TRIAZOLO[4,3-A]PYRAZIN-4-YL)-N-METHYLAZETIDIN-3-AMINE HEMISUCCINATE” (JW PHARMACEUTICAL CORPORATION, priority 2021, published 2024)

Experiments:
[1] = solid-state stability on drying in vacuum oven at 60° C. (XRPD, FIG. 8); type: physicochemical
Excerpt: Form F is a channel hydrate and generally channel hydrates/solvates are not very stable since the solvent molecules easily can move in and out of the channels and causes collapse of the crystal lattice. In the case of form F the water molecules are placed in the same molecular plane as the succinate molecules which stabilize the hydrate and makes form F particularly useful for use in a solid pharmaceutical product, such as in a tablet. Furthermore, form F can be dried under moderate drying conditions such as in a vacuum oven at 60° C. […] Also form F has been found suitable for large scale drying.
FIG. 8: XRPD's of Form F stored in vacuum at 60° for different periods of time. At each time point of a quick XRPD (9 min) and a normal XRPD (1 hour) were recorded
XRPD patterns were collected with a PANalytical X'pert Empyrean diffractometer using an incident Cu Kα radiation and operating at 45 kV and 40 mA. The XRPD patterns were collected in the 2 theta range from 3 to 60 degrees with a step size of 0.013°, counting time of 198.645s and in transmission geometry. 25 repetitions were done and summarized. In the incident beam path, an parabolic shaped beam Cu W/Si (hybrid MPD) monochromator together with a 10 mm fixed mask, fixed anti-scatter slit ⅛° and fixed divergence slits of 1/16° were placed to line focus the Cu Kα X-rays through the sample and onto the detector. […]

[2] = solid-state stability on micronization; type: physicochemical
histamine 4 receptor = histamine 4 receptor (Homo sapiens, UniProt Q9H3N8); conditions: background statement, refers to U.S. Pat. No. 9,586,959; cited from earlier work
Sequence of histamine 4 receptor (Q9H3N8 whole entry): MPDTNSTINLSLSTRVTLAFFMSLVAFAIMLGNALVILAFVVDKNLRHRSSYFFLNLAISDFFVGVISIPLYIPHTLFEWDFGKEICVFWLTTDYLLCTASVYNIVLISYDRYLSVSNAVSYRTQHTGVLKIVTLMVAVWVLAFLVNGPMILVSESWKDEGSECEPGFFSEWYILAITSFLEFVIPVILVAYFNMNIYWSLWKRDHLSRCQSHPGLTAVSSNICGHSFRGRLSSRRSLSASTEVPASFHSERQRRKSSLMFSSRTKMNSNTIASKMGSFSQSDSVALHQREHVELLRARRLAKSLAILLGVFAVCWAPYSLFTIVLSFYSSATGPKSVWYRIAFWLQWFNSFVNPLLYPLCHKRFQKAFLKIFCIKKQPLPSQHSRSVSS

[3] = system: inflammatory cells such as mast cells and eosinophils; conditions: background statement, refers to U.S. Pat. No. 9,586,959; cited from earlier work

Compound | crystal lattice stability on drying [1] | stability of crystalline form on micronization [2] | histamine 4 receptor inhibitory effect (histamine 4 receptor) | effect against histamine induced infiltration of inflammatory cells such as mast cells and eosinophils [3]
1-(8-bromopyrido[2,3-e][1,2,4]triazolo[4,3-a]pyrazin-4-yl)-N-methylazetidin-3-amine hemisuccinate monohydrate [form F] | without collapsing the crystal lattice | tolerates micronization without undergoing amorphization |  | 
CNC1CN(c2nc3ncc(Br)cc3n3cnnc23)C1 [1-(8-bromopyrido[2,3-e][1,2,4]triazolo[4,3-a]pyrazin-4-yl)-N-methylazetidin-3-amine] |  |  | strong | suppressive effects
